One experiment addresses Leukotriene B4 receptor (Homo sapiens, UniProt Q9NPC1+Q15722). The experiment is described as follows: Inhibition of LTB4 receptor induced chemotaxis of isolated human neutrophils. It is filed as functional.
Experiment [1] addresses Leukotriene B4 receptor (Cavia porcellus). Put plainly: Inhibition of leukotriene B4 (LTB4) binding to guinea pig spleen.
The species named for experiment [2] is Homo sapiens. The experiment is described as follows: Antagonistic activity was evaluated against LT D4 on human neutrophils. It is filed as functional.
The species named for experiment [3] is Homo sapiens. The experiment is described as follows: Antagonistic activity was evaluated against LT B4 on human neutrophils. It is filed as functional.
The test system of experiment [4] is Leukotriene B4 receptor (Cavia porcellus). The experiment is described as follows: Compound was evaluated for the inhibition of Leukotriene B4 (LTB4) receptor binding to guinea pig spleen derived receptor (GPS); IA means inactive.
The species named for experiment [5] is Homo sapiens. Put plainly: Compound was evaluated for the inhibition of LTB4 receptor -induced chemotaxis of isolated human neutrophils; IA means inactive. The class given is functional.

Structures are written as SMILES.

As for `O=C(O)c1ccc2c(c1)OC[C@H](Cc1ccccc1)[C@H]2O`, the IC50 (as a rule, the concentration at which inhibition is half-maximal) on Leukotriene B4 receptor is > 100 µM; in experiment [1], 20 µM.
`CCC(CC)(C(=O)O)c1ccc2c(c1)OC[C@H](Cc1ccccc1)[C@H]2O`: the results for the IC50 (at Leukotriene B4 receptor; in experiment [1]) were 0.17 µM and 0.29 µM, respectively.
Taken in the same sequence, the figures for `CC(C)(C(=O)O)c1ccc2c(c1)OC[C@H](Cc1ccc(F)cc1F)[C@H]2O` were 6.2 µM and 8 µM.
Regarding `CC(C)(C(=O)O)c1ccc2c(c1)OC[C@H](Cc1ccccc1)C2`, the IC50 at Leukotriene B4 receptor was 25 µM; in experiment [1], 17 µM.
For the compound `CC(C(=O)O)c1ccc2c(c1)OC[C@H](Cc1ccccc1)[C@H]2O` (stereo partly drawn), the IC50 in the experiment filed under Homo sapiens [2] is > 100 µM; in the experiment listed under Homo sapiens [3], 0.79 µM; against Leukotriene B4 receptor, 16.4 µM; in experiment [1], 13 µM.
Take `CNC(=O)C(C)(C)c1ccc2c(c1)OC[C@H](Cc1ccccc1)[C@H]2O`: the IC50 against Leukotriene B4 receptor was 1.5 µM; in experiment [1], > 100 µM.
In the same order, the values of `O=C(O)C1(c2ccc3c(c2)OC[C@H](C(c2ccccc2)c2ccccc2)[C@H]3O)CCCC1` are 10 µM and 5.4 µM.
In the same order, the values of `CC(C)(C(=O)O)c1ccc2c(c1)OC[C@H](Cc1cccc(F)c1)[C@H]2O` are 9.4 µM and 6 µM.
Taken in the same sequence, the figures for `O=C(O)C1(c2ccc3c(c2)OC[C@H](Cc2ccc(C(F)(F)F)cc2)[C@H]3O)CCCC1` were 6 µM and 12 µM.
For `OCCc1ccc2c(c1)OC[C@H](Cc1ccccc1)[C@H]2O`, the IC50 against Leukotriene B4 receptor is > 50 µM; in experiment [1], > 100 µM.
In the same order, the values of `CC(C)c1ccc2c(c1)OC[C@H](Cc1ccccc1)[C@H]2O` are 7.2 µM and 100 µM.
In the same order, the values of `O=C(O)C1(c2ccc3c(c2)OC[C@H](Sc2ccccc2)[C@H]3O)CCCC1` are 0.5 µM and 0.56 µM.
For the compound `CC(C(=O)O)c1ccc2c(c1)[C@H](O)[C@@H](Cc1ccccc1)CO2` (stereo partly drawn), the concentration for half-maximal inhibition (IC50) result (in experiment [4]; in the experiment filed under Homo sapiens [5]) was “Not Active” throughout.
`OCc1ccc2c(c1)OC[C@H](Cc1ccccc1)[C@H]2O`: the IC50 on Leukotriene B4 receptor is > 50 µM; in experiment [1], > 100 µM.
As to `COc1cccc(C[C@H]2COc3cc(C(C)C(=O)O)ccc3[C@@H]2O)c1` (stereo partly drawn), the results for the IC50 (on Leukotriene B4 receptor; in experiment [1]) were 12.2 µM and 53 µM, respectively.
As to `CC(C)(C(=O)O)c1ccc2c(c1)OC[C@H](CC1CCCCC1)[C@H]2O`, the IC50 worked out at 20 µM against Leukotriene B4 receptor and 34 µM in experiment [1].
Taken in the same sequence, the figures for `CC(C)(C(=O)O)c1ccc2c(c1)OC[C@H](Cc1ccccn1)[C@H]2O` were 2.6 µM and 8 µM.
In the same order, the values of `O=C(O)CCc1ccc2c(c1)OC[C@H](Cc1ccccc1)[C@H]2O` are 16 µM and 12 µM.
In the case of `CC(C)(C(=O)O)c1ccc2c(c1)OC[C@H](Cc1ccc(Cl)cc1)[C@H]2O`, the IC50 at Leukotriene B4 receptor is 5.4 µM; in experiment [1], 4 µM.
In the same order, the values of `O[C@H]1c2ccccc2OC[C@@H]1Cc1ccccc1` are > 50 µM and 100 µM.
Taken in the same sequence, the figures for `O=C(O)C1(c2ccc3c(c2)OC[C@H](CCc2ccc(-c4ccccc4)cc2)[C@H]3O)CCCC1` were 5.8 µM and 3.2 µM.
Taken in the same sequence, the figures for `O[C@H]1c2ccc(C3(C4N=NN=N4)CCCC3)cc2OC[C@@H]1C(c1ccccc1)C1CCCCC1` (stereo partly drawn) were 1.5 µM and 0.35 µM.
As to `O=C(O)C1(c2ccc3c(c2)OC[C@H](Cc2ccc(F)cc2F)[C@H]3O)CCCC1`, the IC50 came out at 1 µM at Leukotriene B4 receptor and 2 µM in experiment [1].
In the same order, the values of `COc1ccc(C[C@H]2COc3cc(C(C)C(=O)O)ccc3[C@@H]2O)cc1` (stereo partly drawn) are 18.5 µM and 12 µM.
`CC(C)(C(=O)N1CCCC1)c1ccc2c(c1)OC[C@H](Cc1ccccc1)[C@H]2O`: the IC50 at Leukotriene B4 receptor was 1.7 µM; in experiment [1], 40 µM.
In the same order, the values of `O=C(O)C1(c2ccc3c(c2)OC[C@H](Cc2ccc4ccccc4n2)[C@H]3O)CCCC1` are > 50 µM and 8.8 µM.
Taken in the same sequence, the figures for `O=C(O)C1(c2ccc3c(c2)OC[C@H](CCc2ccccc2)[C@H]3O)CCCC1` were 0.3 µM and 0.49 µM.
Take `O=C(O)C1(c2ccc3c(c2)OC[C@H](Cc2cccs2)[C@H]3O)CCCC1`: the IC50 against Leukotriene B4 receptor came out at 0.33 µM; in experiment [1] it was 0.65 µM.
Taken in the same sequence, the figures for `O=C(O)C1(c2ccc3c(c2)OC[C@H](CCCc2ccccc2)[C@H]3O)CCCC1` were 4.2 µM and 2.7 µM.
Taken in the same sequence, the figures for `O=C(O)C1(c2ccc3c(c2)OC[C@H](Cc2ccccc2)[C@H]3O)CCC1` were 14 µM and 2.7 µM.
In the same order, the values of `O=C(O)C1(c2ccc3c(c2)OC[C@H](Cc2ccccc2)[C@H]3O)CCCC1` (stereo in doubt) are 1.1 µM and 3.4 µM.
`CC(C)(C(=O)O)c1ccc2c(c1)OC[C@H](Cc1ccccc1)[C@H]2O` (stereo in doubt): the results for the IC50 (on Leukotriene B4 receptor; in experiment [1]) were 12.5 µM and 40 µM, respectively.
On to `O=C(O)Cc1ccc2c(c1)OC[C@H](Cc1ccccc1)[C@H]2O` (stereo in doubt; 4), for which the IC50 at Leukotriene B4 receptor amounted to 12 µM; in experiment [1], 25 µM.
Taken in the same sequence, the figures for `O=C(O)Cc1ccc2c(c1)OC[C@H](Cc1ccccc1)[C@H]2O` (stereo in doubt; 5) were 34 µM and 30 µM.
Take `CC(C)(C(=O)O)c1ccc2c(c1)OC[C@H](Cc1ccccc1)[C@H]2O` (stereo in doubt; 6): the IC50 on Leukotriene B4 receptor was found to be 2.4 µM; in experiment [1], 1.2 µM.
Taken in the same sequence, the figures for `CC(C)(C(=O)O)c1ccc2c(c1)OC[C@H](Cc1ccccc1)[C@H]2O` (stereo in doubt; 7) were 5.7 µM and 2.3 µM.
Taken in the same sequence, the figures for `CC(C)(C(=O)O)c1ccc2c(c1)OC[C@H](Cc1ccccc1)[C@H]2O` (stereo in doubt; 8) were 3.4 µM and 1.3 µM.
As to `O=C(O)C1(c2ccc3c(c2)OC[C@H](Cc2ccccc2)[C@H]3O)CCCC1` (stereo in doubt; 11), the IC50 against Leukotriene B4 receptor is 0.16 µM; in experiment [1], 0.32 µM.
Taken in the same sequence, the figures for `O=C(O)C1(c2ccc3c(c2)OC[C@H](Cc2ccccc2)[C@H]3O)CCCC1` (stereo in doubt; 12) were 0.078 µM and 0.42 µM.
Taken in the same sequence, the figures for `O=C(O)C1(c2ccc3c(c2)OC[C@H](Cc2ccccc2)[C@H]3O)CCCC1` (stereo in doubt; 13) were 0.098 µM and 0.29 µM.
In the same order, the values of `O=C(O)C1(c2ccc3c(c2)OC[C@H](Cc2ccccc2)[C@H]3O)CCCCC1` (stereo in doubt; 14) are 0.38 µM and 0.2 µM.
Regarding `O=C(O)C1(c2ccc3c(c2)OC[C@H](Cc2ccccc2)[C@H]3O)CCCCC1` (stereo in doubt; 15), the IC50 was found to be 0.23 µM against Leukotriene B4 receptor and 0.24 µM in experiment [1].
As for `O=C(O)C1(c2ccc3c(c2)OC[C@H](Cc2ccccc2)[C@H]3O)CCCCC1` (stereo in doubt; 16), the IC50 against Leukotriene B4 receptor stood at 0.17 µM; in experiment [1], 0.25 µM.

The record behind these values is ChEMBL document CHEMBL1130371, “3-Substituted-4-hydroxy-7-chromanylacetic acid derivatives as antagonists of the leukotriene B4 (LTB4) receptor” (Bioorg Med Chem Lett, 1997).
